Values of other authors as cited in patent publication US20110052647A1, “Antidepressant Oral Pharmaceutical Compositions” (priority 2005, published 2011).

Experiments:
[1] = oral administration of capsules containing enteric-coated pellets
[2] = test system: dopaminergic, adrenergic, cholinergic or histaminergic receptors; conditions: in vitro
[3] = not given; remark: listed apart in the source
[4] = test system: monoamine oxidase (MAO)

CNCC[C@H](Oc1cccc2ccccc12)c1cccs1 [Duloxetine, (S)-N-methyl-3-(1-naphthyloxy)-3-(2-thienyl)propan-1-amine]
mean plasma elimination half-life [1]: 12.1 h | median time to maximum concentration (Tmax) [1]: 6 h | affinity for dopaminergic, adrenergic, cholinergic or histaminergic receptors [2]: no significant affinity | dosage hydrolyzed to 1-naphthol (pH of 1.0, within one hour): 50% | dosage degrades to 1-Naphthol (pH of 2.0, in one hour): 10% | time for 10% degradation (pH of 4.0): up to 63 hours | pH values at which unstable in solution [3]: less than 2.5 | inhibition of monoamine oxidase (MAO) [4]: does not inhibit
